Reference: US5300629A, “Bactericidal and/or bacteriostatic peptides isolated from hemolymph of honeybees” (Plant Genetic Systems, N.V., priority 1987, dated 1994)
Where a SMILES comes first, the peptide text is derived from it.

Experiments:
Type in all cases: cell-based
[1] = test system: Citrobacter freundii ATCC 8090; assay: Inhibition zone assay; parameters: key: --: "-" means that no inhibition has been found
[2] = test system: Erwinia carotovora var. atroseptica NCPPB 549; assay: Inhibition zone assay; parameters: key: --: "-" means that no inhibition has been found; details: I and B 10 ul, L 5 ug
[3] = test system: Enterobacter cloacae LMG 2783; assay: Inhibition zone assay; parameters: key: --: "-" means that no inhibition has been found; details: I and B 10 ul
[4] = test system: Staphylococcus aureus STA 1; assay: Inhibition zone assay; parameters: key: --: "-" means that no inhibition has been found; details: I 10 ul
[5] = test system: S. cerevisiae; assay: Growth-inhibition zone assay, first screening
Protocol: (§1) Whole lymph or purified components, resuspended in PBS to a final volume equal to the starting material (heated lymph), was applied in 3 mm wells on agar plates seeded with the test organisms. Antibacterial activity was determined by measuring the growth-inhibition zones (in mm).

[6] = test system: D. hansenii; assay: Growth-inhibition zone assay, first screening
Protocol: as §1

[7] = test system: Enterobacter agglomerans ICPB 3423; assay: Inhibition zone assay; parameters: key: --: "-" means that no inhibition has been found
[8] = test system: Micrococcus lysodeikticus LMG 4050; assay: Inhibition zone assay; parameters: key: --: "-" means that no inhibition has been found; details: I and B 10 ul, L 5 ug
[9] = test system: Proteus morganii CuETM 77-83; assay: Inhibition zone assay; parameters: key: --: "-" means that no inhibition has been found; details: I and B 10 ul, L 5 ug
[10] = test system: Yersinia enterocolitica PGS C-1106; assay: Inhibition zone assay; parameters: key: --: "-" means that no inhibition has been found; details: * synthetic ApidIa and heattreated immune lymph instead of Bee6 and native immune lymph
[11] = test system: Rhizobium leguminosarum 720; assay: Inhibition zone assay; parameters: key: --: "-" means that no inhibition has been found
[12] = test system: Azospirillum brasilliense ATCC 29145; assay: Inhibition zone assay; parameters: key: --: "-" means that no inhibition has been found
[13] = test system: Pseudomonas syringae pv. syringae ATCC 19310; assay: Inhibition zone assay; parameters: key: --: "-" means that no inhibition has been found
[14] = test system: Haemophilus influenzae NCTC 7279; assay: Inhibition zone assay; parameters: key: --: "-" means that no inhibition has been found; details: I and B 10 ul
[15] = test system: Xanthomonas campestris pv. vesicatoria XV82-4; assay: Inhibition zone assay; parameters: key: --: "-" means that no inhibition has been found; details: I and B 10 ul, L 5 ug
[16] = test system: Clostridium perfringens NCTC 6785; parameters: key: --: "-" means that no inhibition has been found; details: I 10 ul
[17] = test system: Agrobacterium tumefaciens DSM 3129; assay: Inhibition zone assay; details: I and B 10 ul, L 5 ug
[18] = test system: Streptococcus B CDC 55 460; assay: Inhibition zone assay; parameters: key: --: "-" means that no inhibition has been found; details: I 10 ul
[19] = test system: Xanthomonas campestris pv. oryzae IRN 235; parameters: key: --: "-" means that no inhibition has been found
[20] = test system: Pseudomonas cepacia ATCC 25416; assay: Inhibition zone assay; parameters: key: --: "-" means that no inhibition has been found; details: I and B 10 ul, L 5 ug
[21] = test system: Rhodococcus equi ATCC 25729; assay: Inhibition zone assay; parameters: key: --: "-" means that no inhibition has been found; details: I and B 10 ul, L 5 ug
[22] = test system: Erwinia carotovora var. carotovora NCPPB 312; assay: Inhibition zone assay; parameters: key: --: "-" means that no inhibition has been found
[23] = test system: Pseudomonas solanacearum ATCC 11696; parameters: key: --: "-" means that no inhibition has been found; details: * synthetic ApidIa and heattreated immune lymph instead of Bee6 and native immune lymph
[24] = test system: Rhizobium meliloti ZB 314; assay: Inhibition zone assay; details: I and B 10 ul, L 5 ug
[25] = test system: Rhizobium phaseoli CIAT 899; assay: Inhibition zone assay; parameters: key: --: "-" means that no inhibition has been found; details: I and B 10 ul, L 5 ug
[26] = test system: E. coli NCTC 9001; assay: Killing assay, growth inhibition in liquid medium; details: purified factors in PBS (7.5% LPG), 10^3 cells, optical density at 630 nm
Protocol: Bacterial development was monitored by measuring the optical densities and by plate counts. […] The purified factors resuspended in PBS (7.5% LPG) (FIG. 4A, 4B, 4C, 4D) were inoculated with 10^4 cells (C) or 10^3 cells (A, B and D) . Bacterial development was calculated by measuring the optical densities at 630 nm.

[27] = test system: Flavobacterium devorans NRRL B-54; assay: Inhibition zone assay; parameters: key: --: "-" means that no inhibition has been found; details: I and B 10 ul, L 5 ug
[28] = test system: Serratia fonticola ATCC 298449; assay: Inhibition zone assay; details: I and B 10 ul, L 5 ug
[29] = test system: Erwinia salicis NCPPB 2530; assay: Inhibition zone assay; parameters: key: --: "-" means that no inhibition has been found; details: I and B 10 ul, L 5 ug
[30] = test system: ATCC 17991; assay: Inhibition zone assay; parameters: key: --: "-" means that no inhibition has been found; details: Salmonella marcescens ATCC 17991
[31] = test system: Listeria monocytogenes B5; assay: Inhibition zone assay; parameters: key: --: "-" means that no inhibition has been found; details: L 5 ug
[32] = test system: Bacillus megaterium QMB 1551; assay: Inhibition zone assay; parameters: key: --: "-" means that no inhibition has been found; details: I and B 10 ul, L 5 ug
[33] = test system: Streptococcus pyogenes NCTC 8193; assay: Inhibition zone assay; parameters: key: --: "-" means that no inhibition has been found; details: I 10 ul
[34] = test system: Agrobacterium tumefaciens ATCC 143; assay: Inhibition zone assay; parameters: key: --: "-" means that no inhibition has been found

CC[C@H](C)[C@H](NC(=O)[C@H](CCCCN)NC(=O)[C@@H]1CCCN1C(=O)[C@H](CC(N)=O)NC(=O)[C@H](Cc1ccccc1)NC(=O)[C@@H]1CCCN1C(=O)CNC(=O)[C@H](CCC(N)=O)NC(=O)CNC(=O)[C@@H]1CCCN1C(=O)[C@H](Cc1ccccc1)NC(=O)[C@@H](NC(=O)[C@@H]1CCCN1C(=O)[C@H](Cc1ccccc1)NC(=O)[C@@H]1CCCN1C(=O)[C@H](CCCNC(=N)N)NC(=O)[C@H](CCCNC(=N)N)NC(=O)CNC(=O)[C@@H]1CCCN1C(=O)[C@H](CCC(N)=O)NC(=O)[C@@H]1CCCN1C(=O)[C@@H](NC(=O)[C@H](CC(N)=O)NC(=O)[C@@H]1CCCN1C(=O)[C@H](CC(C)C)NC(=O)[C@@H]1CCCN1C(=O)[C@@H](NC(=O)[C@@H](N)Cc1ccc(O)cc1)C(C)C)C(C)C)[C@@H](C)O)C(=O)N[C@@H](CCCCN)C(=O)N[C@@H](Cc1c[nH]c2ccccc12)C(=O)N1CCC[C@H]1C(=O)N[C@@H](CCC(N)=O)C(=O)NCC(=O)N[C@@H](Cc1ccc(O)cc1)C(=O)O [bee 9] (H-YVPLPNVPQPGRRPFPTFPGQGPFNPKIKWPQGY-OH)
diameter of growth-inhibition zone [1]: -- | diameter of growth-inhibition zone [2]: -- | diameter of growth-inhibition zone [3]: -- | diameter of growth-inhibition zone [4]: -- | susceptibility of eucaryote strain [5]: resistant | susceptibility of eucaryote strain [6]: resistant | diameter of growth-inhibition zone [7]: -- | diameter of growth-inhibition zone [8]: -- | diameter of growth-inhibition zone [9]: -- | diameter of growth-inhibition zone [10]: -- | diameter of growth-inhibition zone [11]: -- | diameter of growth-inhibition zone [12]: -- | diameter of growth-inhibition zone [13]: -- | diameter of growth-inhibition zone [14]: -- | diameter of growth-inhibition zone [15]: -- | diameter of growth-inhibition zone [16]: -- | diameter of growth-inhibition zone [17]: 4 mm | diameter of growth-inhibition zone [18]: -- | diameter of growth-inhibition zone [19]: -- | diameter of growth-inhibition zone [20]: -- | diameter of growth-inhibition zone [21]: -- | diameter of growth-inhibition zone [22]: -- | diameter of growth-inhibition zone [23]: -- | diameter of growth-inhibition zone [24]: 4 mm | diameter of growth-inhibition zone [25]: -- | activity, growth inhibition in liquid medium [26]: neither susceptible | diameter of growth-inhibition zone [27]: -- | diameter of growth-inhibition zone [28]: 9 mm | diameter of growth-inhibition zone [29]: -- | diameter of growth-inhibition zone [30]: -- | diameter of growth-inhibition zone [31]: -- | diameter of growth-inhibition zone [32]: -- | diameter of growth-inhibition zone [33]: -- | diameter of growth-inhibition zone [34]: --
